Test results: patent US20040191327A1, “Method of treating and/or preventing asthma using natural compound luteolin” (Council of Scientific and Industrial Research, priority 2003, published 2004)
Where “and” joins values, the source holds several entries; their conditions need not be identical. Identical values can stand only once. Marks after values point to notes of the source that are not given here.

Tests used:
OVA-sensitized mice [1] = assay: Airway reactivity to methacholine (MCh PD35) in mouse model of asthma; format: in vivo
Description: Protocol A: The mice were given three i.p. Injections of 10 μg ovalbumin adsorbed on 2 mg alum on 0, 7 and 14 days and then subjected to OVA aerosol inhalation for five consecutive days from 19th to 23rd day of the experiment. On 24th day SGaw measurements were performed after OVA challenge in the plethysmograph and airway reactivity to methacholine was measured after 24 hours. In case of curative study (Protocol B), sensitized mice were fed with 1 mg/kg body weight of Luteolin for one week (days 26-32) and the effects on SGaw and airway reactivity were evaluated.
(§1) Mice were immunized/sensitized with or without (sham-sensitized) 0.2 ml of 10 μg ovalbumin (Sigma Chemicals Co. St Louis, Mo., USA) and 2 mg aluminum hydroxide intraperitoneally on days 0,7 and 14 using a modified protocol previously described by Sakai et al (FIG. 2). Five days after the final i.p injection, the mice were subjected to aerosolized OVA (5%) or phosphate buffered saline (PBS) (for sham-sensitized group) inhalation for 20 minutes daily beginning from day 19 to day 23 (FIG. 2). Mice were placed in a plexiglas chamber (20×20×20 cm dimensions) and exposed to an aerosol generated from a nebulizer (de Vilbiss, USA) with airflow of 41/min.
(§2) To study the preventive effect, Luteolin (dissolved in 50% hydro-alcohol) (Sigma Chemicals Co. St Louis, Mo., USA) (0.1, 1.0, and 10.0 mg/kg body weight, 20 □| volume) or vehicle (i.e., 50% hydro-alcohol) was administered orally to each group of mice daily, starting from the first day of sensitization (FIG. 2A). To study the curative effect, mice were first sensitized as described before (Example 1) followed by oral Luteolin (1.0 mg/kg body weight) treatment daily from day 26 to 32 (FIG. 2B).
Airway reactivity to methacholine was determined by measuring the concentration of inhaled methacholine that produced 35% fall in SGaw (MCh PD35) in intact mouse sitting in the body plethysmograph. Aerosol of different concentrations of methacholine (3.1, 6.25, 12.5, 50, 100 mg/ml) were given for 60 seconds. MCh PD35 values were determined in sham-sensitized, sensitized and Luteolin treated mice during and after sensitization. […] Treatment with Luteolin (0.1, 1.0 and 10.0 mg/kg during sensitization) markedly attenuated the development of airway hyperreactivity to methacholine. MCh PD35 values increased following Luteolin treatment to 72.1±1.9, 42.4±4.2 and 10.9±4.8 mg/ml, respectively (p<0.01).

OVA-sensitized mice [2] = assay: OVA-induced airway constriction (fall of specific airway conductance, SGaw) in mouse model of asthma; format: in vivo
Description: Protocol A: The mice were given three i.p. Injections of 10 μg ovalbumin adsorbed on 2 mg alum on 0, 7 and 14 days and then subjected to OVA aerosol inhalation for five consecutive days from 19th to 23rd day of the experiment. On 24th day SGaw measurements were performed after OVA challenge in the plethysmograph and airway reactivity to methacholine was measured after 24 hours. In case of curative study (Protocol B), sensitized mice were fed with 1 mg/kg body weight of Luteolin for one week (days 26-32) and the effects on SGaw and airway reactivity were evaluated. Mice were immunized/sensitized with or without (sham-sensitized) 0.2 ml of 10 μg ovalbumin (Sigma Chemicals Co. St Louis, Mo., USA) and 2 mg aluminum hydroxide intraperitoneally on days 0,7 and 14 using a modified protocol previously described by Sakai et al (FIG. 2). Five days after the final i.p injection, the mice were subjected to aerosolized OVA (5%) or phosphate buffered saline (PBS) (for sham-sensitized group) inhalation for 20 minutes daily beginning from day 19 to day 23 (FIG. 2). Mice were placed in a plexiglas chamber (20×20×20 cm dimensions) and exposed to an aerosol generated from a nebulizer (de Vilbiss, USA) with airflow of 41/min. To study the preventive effect, Luteolin (dissolved in 50% hydro-alcohol) (Sigma Chemicals Co. St Louis, Mo., USA) (0.1, 1.0, and 10.0 mg/kg body weight, 20 □| volume) or vehicle (i.e., 50% hydro-alcohol) was administered orally to each group of mice daily, starting from the first day of sensitization (FIG. 2A). […] Airway calibre was measured in the term of specific airway conductance (SGaw) using a dual-chamber whole body plethysmograph similar to the method for guinea pigs (Agrawal, 1981) with some modifications. […] The value of SGaw was calculated as described by Agrawal (1981). Airway constriction of mice was determined in terms of fall of SGaw due to OVA aerosol challenge. SGaw was measured as described in Example 3. […]

IFN-γ = IFN-γ level in BALF by ELISA; format: in vivo, mouse; conditions: mean±SEM, n=6
Description: (§3) After testing the compound for the preventive as well as for therapeutic effects in intact conscious mice, mice were sacrificed for collecting the blood and bronchoalveolar lavage (BAL) fluid to measure the levels of IgE, cytokines IL-4, IL-5 and IFN-γ. Ovalbumin specific IgE levels in the sera and the levels of IL-4, IL-5 and IFN-γ in the BAL fluid were measured by enzyme linked ImmunoSorbent assay (ELISA) kits.
(§4) Experiments were performed with six groups of mice (n=6) as described in FIG. 3 legend and the levels of IFN-γ, IL-4 and IL-5 were measured in the BALF. The values are a mean±SEM of six mice in each group. Mann Whitney U test was used to determine the significant differences between the sensitized- and Luteolin treated groups. * p <0.05, ** p<0.01. ‘a’ denotes treatment during sensitization; ‘b’ denotes treatment after sensitization.
as §1, §2
(§5) To investigate the levels of IL-4 and IFN-[…] in the BALF, we measured the cytokine levels by ELISA as per manufacturer's protocol, and compared between the different groups. […] In the Luteolin-treated group, there was an increase in the ratio of IFN-γ/IL-4 (25.8±2.7, 15.5±1.3, 13.2±2.5 following doses of 0.1, 1.0 and 10.0 mg/kg Luteolin, respectively as compared to 0.48±0.1 in sensitized, vehicle treated mice) (p<0.01) (Table 1). […] This increase in the IFN-γ/IL-4 ratio was due to the increase in the IFN-γ levels. We also measured the concentration of IL-5 in the BALF by ELISA in the different groups (Table 1). […]

IL-5 = IL-5 level in BALF by ELISA; format: in vivo, mouse; conditions: mean±SEM
Description: as §3, §4, §1, §2, §5

IL-4 = IL-4 level in BALF by ELISA; format: in vivo, mouse; conditions: mean±SEM, n=6
Description: as §3, §4, §1, §2, §5

OVA-sensitized mice [3] = assay: Mouse model of asthma, effective oral dose; format: in vivo
Description: In this context, Luteolin was tested on mouse model of asthma. Mice were sensitized with intraperitoneal and aerosol inhalation of OVA to develop the characteristic features of asthma such as allergen induced early airway response (EAR) and late airway response (LAR). These asthmatic features were characterized by measuring airway calibre in the term of specific airway conductance (SGaw) by a non-invasive technique, dual-chamber whole body plethysmography. After developing the characteristic features (EAR and LAR) in mouse, the compound, Luteolin was given orally during whole sensitization period to test the preventive effect on the development of asthmatic features. To examine the therapeutic effect of Luteolin on the asthmatic features, it was fed for one week to mice after sensitization and confirming their asthmatic features.
as §2

OVA-specific IgE = OVA-specific IgE levels in serum by ELISA; format: in vivo, mouse
Description: as §3, §1, §2
OVA-specific IgE levels in the serum were measured by enzyme linked ImmunoSorbent assay (ELISA), To investigate the effect of Luteolin on serum IgE levels, we compared the levels of the OVA-specific IgE in serum of mice treated with vehicle or with Luteolin (0.1, 1.0 and 10.0 mg/kg) during sensitization and in sham-sensitized mice.

[4] = 1.0 mg/kg oral during sensitization
[5] = 1.0 mg/kg oral for one week after sensitization
[6] = 10.0 mg/kg oral during sensitization
[7] = 10.0 mg/kg during sensitization

## O=c1cc(-c2ccc(O)c(O)c2)oc2cc(O)cc(O)c12 [Luteolin]
OVA-sensitized mice [1]; 0.1 mg/kg oral during sensitization, sensitized 1.3±0.5, normal 97±1.0
  MCh PD35: 72.1 ± 1.9 mg/mL
OVA-sensitized mice [1]; [4]
  MCh PD35: 42.4 ± 4.2 mg/mL
OVA-sensitized mice [1]; [5]
  MCh PD35: increased significantly
OVA-sensitized mice [1]; [6]
  MCh PD35: 10.9 ± 4.8 mg/mL
OVA-sensitized mice [2]; 0.1 mg/kg oral daily during sensitization, sensitized vehicle mice 43% fall
  decrease in SGaw after OVA challenge: 7%
OVA-sensitized mice [2]; [5]
  OVA-induced decrease in SGaw, curative effect: reverse OVA-induced decrease in SGaw
OVA-sensitized mice [2]; 1.0 and 10.0 mg/kg oral daily during sensitization, versus 0.1 mg/kg
  reduction of OVA-induced decrease in SGaw at higher doses: did not show any greater reduction
IFN-γ; 0.1 mg/kg during sensitization
  IFN-γ: 3533 ± 427** pg/ml
IFN-γ; 1.0 mg/kg after sensitization
  IFN-γ: 2067 ± 233.3** pg/ml
IFN-γ; 1.0 mg/kg during sensitization
  IFN-γ: 2652 ± 114.3** pg/ml
IFN-γ; [7]
  IFN-γ: 1247 ± 412.5** pg/ml
IL-5; 0.1 mg/kg during sensitization, n=6, 0.1 mg/kg
  IL-5: 73.3±13.4 pg/ml and 73 ± 13.4* pg/ml
IL-5; 1.0 mg/kg after sensitization (one week), n=6, 1 mg/kg
  IL-5: 43.7±2.3 pg/ml and 44 ± 2.3* pg/ml
IL-5; 1.0 mg/kg during sensitization, n=6, 1 mg/kg
  IL-5: 43.3±3.5 pg/ml and 43 ± 3.5* pg/ml
IL-5; 10.0 mg/kg during sensitization, n=6
  IL-5: 235 ± 66.4 pg/mL
IL-4; 0.1 mg/kg during sensitization
  IL-4: 136 ± 4.0 pg/mL
IL-4; 1.0 mg/kg after sensitization
  IL-4: 130 ± 5.0 pg/mL
IL-4; 1.0 mg/kg during sensitization
  IL-4: 169 ± 13.9 pg/mL
IL-4; [7]
  IL-4: 128 ± 8.8 pg/mL
OVA-sensitized mice [3]
  effective dose: 1 mg/kg body weight
OVA-specific IgE; 0.1 mg/kg oral during sensitization, sensitized vehicle 3.3±0.4
  OVA-specific serum IgE level: 0.74±0.4
OVA-specific IgE; [4]
  OVA-specific serum IgE level: 0.93±0.03
OVA-specific IgE; 1.0 mg/kg oral for a week after sensitization
  OVA-specific serum IgE level: 2.07±1
OVA-specific IgE; [6]
  OVA-specific serum IgE level: 0.97±0.07
